System: Human Umbilical Vein Endothelial cells
Assay: VEGF-stimulated HUVEC proliferation assay
Type: cell-based
Conditions: 72 h, CyQuant, read-out: inhibited VEGF-stimulated HUVEC proliferation at a level
Experimental: Human Umbilical Vein Endothelial cells are purchased from Clonetics, Inc., as cryopreserved cells harvested from a pool of donors. These cells, at passage 1, are thawed and expanded in EBM-2 complete medium, until passage 2 or 3. The cells are trypsinized, washed in DMEM+10% FBS+antibiotics, and spun at 1000 rpm for 10 min. Prior to centrifugation of the cells, a small amount is collected for a cell count. After centrifugation, the medium is discarded, and the cells are resuspended in the appropriate volume of DMEM+10% FBS+antibiotics to achieve a concentration of 3×10^5 cells/mL. Another cell count is performed to confirm the cell concentration. The cells are diluted to 3×10^4 cells/mL in DMEM+10% FBS+antibiotics, and 100 μL of cells are added to a 96-well plate. The cells are incubated at 37° C. for 22 h.
Prior to the completion of the incubation period, compound dilutions are prepared. Five-point, five-fold serial dilutions are prepared in DMSO, at concentrations 400-fold greater than the final concentrations desired. 2.5 μL of each compound dilution are diluted further in a total of 1 mL DMEM+10% FBS+antibiotics (400× dilution). Medium containing 0.25% DMSO is also prepared for the 0 μM compound sample. At the 22-hour timepoint, the medium is removed from the cells, and 100 μL of each compound dilution is added. The cells are incubated at 37° C. for 2-3 h.
During the compound pre-incubation period, the growth factors are diluted to the appropriate concentrations. Solutions of DMEM+10% FBS+antibiotics, containing either VEGF or bFGF at the following concentrations: 50, 10, 2, 0.4, 0.08, and 0 ng/mL are prepared. For the compound-treated cells, solutions of VEGF at 550 ng/mL or bFGF at 220 ng/mL for 50 ng/mL or 20 ng/mL final concentrations, respectively, are prepared since 10 μL of each will be added to the cells (110 μL final volume). At the appropriate time after adding the compounds, the growth factors are added. VEGF is added to one set of plates, while bFGF is added to another set of plates. For the growth factor control curves, the media on wells B4-G6 of plates 1 and 2 are replaced with media containing VEGF or bFGF at the varying concentrations (50-0 ng/mL). The cells are incubated at 37° C. for an additional 72 h.
At the completion of the 72 h incubation period, the medium is removed, and the cells are washed twice with PBS. After the second wash with PBS, the plates are tapped gently to remove excess PBS, and the cells are placed at −70° C. for at least 30 min. The cells are thawed and analyzed using the CyQuant fluorescent dye (Molecular Probes C-7026), following the manufacturer's recommendations. The plates are read on a Victor/Wallac 1420 workstation at 485 nm/530 nm (excitation/emission). Raw data are collected and analyzed using a 4-parameter fit equation in XLFit. IC50 values are then determined.

`CC1(C)CC(=O)Nc2nc(NC(=O)c3cccnc3Nc3ccc4ncncc4c3)ccc21` [Example 59, N-(5,5-dimethyl-7-oxo-5,6,7,8-tetrahydro-1,8-naphthyridin-2-yl)-2-(quinazolin-6-ylamino)nicotinamide] was tested, and the IC50 was under 1000 nM.

`Nc1ncc2cc(Nc3ncccc3C(=O)Nc3ccc(Cl)cc3)ccc2n1` [Example 65, 2-(2-aminoquinazolin-6-ylamino)-N-(4-chlorophenyl)nicotinamide] showed an IC50 of under 1000 nM.

`CC1(C)CCNc2cc(NC(=O)c3cccnc3Nc3ccc4ncncc4c3)ccc21` [Example 57, N-(4,4-Dimethyl-1,2,3,4-tetrahydro-quinolin-7-yl)-2-(quinazolin-6-ylamino)-nicotinamide] was tested, and the IC50 was under 1000 nM.

In the case of `CC(C)(C)c1cc(NC(=O)c2cccnc2Nc2ccc3ccncc3c2)no1` [Example 15, N-(5-tert-Butyl-isoxazol-3-yl)-2-(isoquinolin-7-ylamino)-nicotinamide], the IC50 is reported as under 1000 nM.

In the case of `CC1(C)CNc2cc(NC(=O)c3cccnc3Nc3cccc4cnccc34)ccc21` [Example 70, N-(3,3-Dimethyl-2,3-dihydro-1H-indol-6-yl)-2-(isoquinolin-5-ylamino)-nicotinamide], the IC50 is reported as under 1000 nM.

Work on `CC1(C)CNCc2cc(NC(=O)c3cccnc3Nc3ccc4ccncc4c3)ccc21` [Example 41, N-(4,4-Dimethyl-1,2,3,4-tetrahydro-isoquinolin-7-yl)-2-(isoquinolin-7-ylamino)-nicotinamide] yielded an IC50 of under 1000 nM.

`CC(C)(C)c1ccc(NC(=O)c2cccnc2Nc2cccc3cnccc23)cc1` [Example 67, N-(4-tert-Butyl-phenyl)-2-(isoquinolin-5-ylamino)-nicotinamide] showed an IC50 of under 1000 nM.

For `CC1(C)CCNc2cc(NC(=O)c3ccccc3Nc3ccc4ncncc4c3)ccc21` [Example 30, N-(4,4-Dimethyl-1,2,3,4-tetrahydro-quinolin-7-yl)-2-(quinazolin-6-ylamino)-benzamide], the IC50 was under 1000 nM.

For `O=C(Nc1ccc(OC(F)(F)F)cc1)c1cccnc1Nc1ccc2ccncc2c1` [Example 61, 2-(isoquinolin-7-ylamino)-N-(4-(trifluoromethoxy)phenyl)nicotinamide], the IC50 was under 1000 nM.

`Cc1nc2cc(NC(=O)c3cccnc3Nc3ccc4[nH]nnc4c3)ccc2s1` [Example 23, 2-(1H-Benzotriazol-5-ylamino)-N-(2-methyl-benzothiazol-5-yl)-nicotinamide] showed an IC50 of under 1000 nM.

Work on `CC(C)(C)OC(=O)N1Cc2cc(NC(=O)c3cccnc3Nc3cnc4ccncc4c3)ccc2C(C)(C)C1` [Example 36, 4,4-Dimethyl-7-{[2-([1,6]naphthyridin-3-ylamino)-pyridine-3-carbonyl]-amino}-3,4-dihydro-1H-isoquinoline-2-carboxylic acid tert butyl ester] yielded an IC50 of under 1000 nM.

Work on `CC1(C)CNCc2cc(NC(=O)c3ccccc3Nc3ccc4ccncc4n3)ccc21` [Example 77, N-(4,4-Dimethyl-1,2,3,4-tetrahydro-isoquinolin-7-yl)-2-([1,7]naphthyridin-2-ylamino)-benzamide] yielded an IC50 of under 1000 nM.

`O=C(Nc1cc(OCC2CCCO2)cc(C(F)(F)F)c1)c1cccnc1Nc1ccc2ccncc2c1` (stereo not shown) [Example 40] was tested, and the IC50 was under 1000 nM.

`CC(C)(C)OC(=O)NCC(=O)N1Cc2cc(NC(=O)c3cccnc3Nc3ccc4ccncc4c3)ccc2C(C)(C)C1` [Example 73, [2-(7-{[2-(Isoquinolin-7-ylamino)-pyridine-3-carbonyl]-amino}-4,4-dimethyl-3,4-dihydro-1H-isoquinolin-2-yl)-2-oxo-ethyl]-carbamic acid tert-butyl ester] was tested, and the IC50 was under 1000 nM.

For `CC(C)(C)c1ccc(NC(=O)c2cccnc2Nc2ccc3ccncc3c2)cn1` [Example 42, N-(6-tert-Butyl-pyridin-3-yl)-2-(isoquinolin-7-ylamino)-nicotinamide], the IC50 was under 1000 nM.

`CC1(C)CNCc2cc(NC(=O)c3cccnc3Nc3ccc4c(c3)OC(F)(F)O4)ccc21` [Example 22, 2-(2,2-Difluoro-benzo[1,3]dioxol-5-ylamino)-N-(4,4-dimethyl-1,2,3,4-tetrahydro-isoquinolin-7-yl)-nicotinamide] showed an IC50 of under 1000 nM.

In the case of `O=C(Nc1ccc(N2CCC2)cn1)c1cccnc1Nc1ccc2ccncc2c1` [Example 47, N-(5-Azetidin-1-yl-pyridin-2-yl)-2-(isoquinolin-7-ylamino)-nicotinamide], the IC50 is reported as under 1000 nM.

`CN1CCCC1COc1cc(NC(=O)c2cccnc2Nc2cccc3cnccc23)cc(C(F)(F)F)c1` (stereo not shown) [Example 68, 2-(Isoquinolin-5-ylamino)-N-[3-(1-methyl-pyrrolidin-2-ylmethoxy)-5-trifluoromethyl-phenyl]-nicotinamide] gave an IC50 of under 1000 nM.

`CC(C)(C)c1cc(NC(=O)c2cccnc2Nc2ccc3ncncc3c2)on1` [Example 50, N-(3-tert-Butyl-isoxazol-5-yl)-2-(quinazolin-6-ylamino)-nicotinamide] was tested, and the IC50 was under 1000 nM.

With `Cc1ccc(NC(=O)c2cccnc2Nc2ccc3nc(N)ncc3c2)cc1Cl` [Example 64, 2-(2-aminoquinazolin-6-ylamino)-N-(3-chloro-4-methylphenyl)nicotinamide] the IC50 was under 1000 nM.

Compound `CC(C)(C)c1ccc(NC(=O)c2cccnc2Nc2cnc3ccncc3c2)cc1` [Example 35, N-(4-tert-Butyl-phenyl)-2-([1,6]naphthyridin-3-ylamino)-nicotinamide] has an IC50 of under 1000 nM.

With `CC(C)(C)c1cc(NC(=O)c2cccnc2Nc2cccc3cnccc23)on1` [Example 71, N-(3-tert-butylisoxazol-5-yl)-2-(isoquinolin-5-ylamino)nicotinamide] the IC50 was under 1000 nM.

Work on `CC(C)c1ccc(NC(=O)c2cccnc2Nc2ccc3ccncc3c2)cc1` [Example 44, N-(4-Isopropyl-phenyl)-2-(isoquinolin-7-ylamino)-nicotinamide] yielded an IC50 of under 1000 nM.

`CC(C)(C)c1ccc(NC(=O)c2ccccc2Nc2ccc3ccncc3n2)cc1` [Example 76, N-(4-tert-Butyl-phenyl)-2-([1,7]naphthyridin-2-ylamino)-benzamide] was tested, and the IC50 was under 1000 nM.

With `CC(C)(C)c1ccc(NC(=O)c2cccnc2Nc2ccc3ccncc3c2)cc1` [Example 14, N-(4-tert-Butyl-phenyl)-2-(isoquinolin-7-ylamino)-nicotinamide] the IC50 was under 1000 nM.

For `O=C(Nc1ccc(Cl)c(C(F)(F)F)c1)c1cccnc1Nc1ccc2ccncc2c1` [Example 34, N-(4-Chloro-3-trifluoromethyl-phenyl)-2-(isoquinolin-7-ylamino)-nicotinamide], the IC50 was under 1000 nM.

`CC1(C)CC(=O)Nc2cc(NC(=O)c3cccnc3Nc3ccc4ccncc4c3)ccc21` [Example 54, N-(4,4-Dimethyl-2-oxo-1,2,3,4-tetrahydro-quinolin-7-yl)-2-(isoquinolin-7-ylamino)-nicotinamide] gave an IC50 of under 1000 nM.

With `CC(C)(C)c1cc(NC(=O)c2cccnc2Nc2ccc3[nH]nnc3c2)no1` [Example 25, 2-(1H-benzo[d][1,2,3]triazol-5-ylamino)-N-(5-tert-butylisoxazol-3-yl)nicotinamide] the IC50 was under 1000 nM.

Compound `Cc1cc(NC(=O)c2cccnc2Nc2ccc3nc(N)ncc3c2)ccc1C(C)C` [Example 63, 2-(2-aminoquinazolin-6-ylamino)-N-(3-methyl-4-(1-methylethyl)phenyl)nicotinamide] has an IC50 of under 1000 nM.

`O=C(Nc1ccc(C(F)(F)C(F)(F)F)cc1)c1cccnc1Nc1ccc2ccncc2c1` [Example 11, 2-(Isoquinolin-7-ylamino)-N-(4-pentafluoroethyl-phenyl)-nicotinamide] was tested, and the IC50 was under 1000 nM.

With `Cc1cc(NC(=O)c2cccnc2Nc2ccc3ccncc3c2)ccc1N1CCCC1` [Example 62, 2-(isoquinolin-7-ylamino)-N-(3-methyl-4-(pyrrolidin-1-yl)phenyl)nicotinamide] the IC50 was under 1000 nM.

For `O=C1CSc2ccc(NC(=O)c3cccnc3Nc3ccc4ccncc4c3)cc2N1` [Example 55, 2-(isoquinolin-7-ylamino)-N-(3-oxo-3,4-dihydro-2H-1,4-benzothiazin-6-yl)nicotinamide], the IC50 was under 1000 nM.

`CNc1ncnc2ccc(Nc3ncccc3C(=O)Nc3ccc4c(c3)CN(C(C)=O)CC4(C)C)cc12` [Example 16, N-(2-Acetyl-4,4-dimethyl-1,2,3,4-tetrahydro-isoquinolin-7-yl)-2-(4-methylamino-quinazolin-6-ylamino)-nicotinamide] showed an IC50 of under 1000 nM.

For `CC1(C)CNCc2cc(NC(=O)c3cccnc3Nc3cnc4ccncc4c3)ccc21` [Example 37, N-(4,4-Dimethyl-1,2,3,4-tetrahydro-isoquinolin-7-yl)-2-([1,6]naphthyridin-3-ylamino)-nicotinamide], the IC50 was under 1000 nM.

From patent publication US7507748B2, “Substituted aryl-amine derivatives and methods of use” (Amgen Inc., priority 2004, dated 2009)
